Assay results from patent US9649392B2, “Central nervous system labelling composition for intranasal administration and labelling method and screening method using central nervous system labelling composition for intranasal administration” (CANON KABUSHIKI KAISHA, priority 2009, dated 2017).

System: central nervous system of the zebrafish
Experiment: dyeing of the central nervous system of juvenile zebrafish after exposure to dye solution, fluorescence/confocal microscope observation over time
Assay type: in vivo
Conditions: 7 dpf juvenile zebrafish; for dyeing of nerve cells of the central nervous system: confocal microscope; for dyed state of the central nervous system (transfer of dyeability with time from nasal cavity via olfactory bulb): left 1 hour, washed, observed at time intervals
Procedure: Distilled water was added to a 1 mg/mL DMSO solution of compound 1 (as expressed by the formula (5) above) to obtain a dye solution 1 containing the compound 1 to a concentration of 200 ng/mL. 1 mL of the dye solution 1 and a 7-day-old (7 dpf) juvenile fish of zebrafish were put into an arbitrarily selected well of a 24-hole multi plate (available from IWAKI) and left there for an hour. Thereafter, the dye solution 1 in the well was removed and an operation of replacing it with 1 mL of distilled water was repeated three times in ten minutes. The elapsed time after the last solution replacing operation was measured and the juvenile fish was taken out from the well when a predetermined time period had elapsed. The juvenile fish was buried in 5% low melting-point agarose gel on a glass slide to restrict any movement and the dyed state of the central nervous system of the zebrafish was observed from a lateral side and the vertex by using fluorescent microscope (MZ16FA: available from Leica). The central nervous system was observed by means of a confocal microscope (Pascal Exciter: available from Zeiss). After the observation, the zebrafish was returned into the well and repeatedly observed thereafter at regular time intervals. […]

Structure (SMILES): CCN1/C(=C\C=C\C2=[N+](CC)c3ccccc3C23CCCCC3)C2(CCCCC2)c2ccccc21 [compound 1]
- dyeing of nerve cells of the central nervous system (dye solution 200 ng/mL): nerve cells of the central nervous system were also dyed
- dyed state of the central nervous system (transfer of dyeability with time from nasal cavity via olfactory bulb) (dye solution 200 ng/mL): firstly the nasal cavity, then the olfactory bulb and finally the central nervous system were sequentially dyed

Structure (SMILES): CC/N=c1\cc2oc3cc(NCC)c(C)cc3c(-c3ccccc3C(=O)OCC)c-2cc1C [compound 2]
- dyeing of nerve cells of the central nervous system (dye solution 500 ng/mL): nerve cells of the central nervous system were also dyed
- dyed state of the central nervous system (transfer of dyeability with time from nasal cavity via olfactory bulb) (dye solution 500 ng/mL): firstly the nasal cavity, then the olfactory bulb and finally the central nervous system were sequentially dyed

Structure (SMILES): CCN1c2ccc(/C=C/C3=[N+](CC)c4ccc(OC)cc4C34CCCCC4)cc2C2CCCC21 (stereo not drawn) [compound 3]
- dyeing of nerve cells of the central nervous system (dye solution 500 ng/mL): nerve cells of the central nervous system were also dyed
- dyed state of the central nervous system (transfer of dyeability with time from nasal cavity via olfactory bulb) (dye solution 500 ng/mL): firstly the nasal cavity, then the olfactory bulb and finally the central nervous system were sequentially dyed
